The test system of series [1] is 5α-reductase type 2 (5AR2). Nature of the series: Western blot of 5AR2 expression in DHT-treated LNCaP cells. Type of series: cell-based, human. The conditions noted are these: 5 μM, DHT-induced LNCaP cells. As for the experimental part: (§1) Animal cells were cultured to investigate the effect of the Salvia miltiorrhiza Bunge extract of the present invention on benign prostatic hyperplasia or alopecia. Human prostate adenocarcinoma cell line LNCaP cells sensitive to androgens were used as animal cells, and purchased from the Korean Cell Line Bank (Seoul, Korea, KCLB #:21740). The cells were cultured in Roswell Park Memorial Institute (RPMI) medium supplemented with […] penicillin/streptomycin and 10% fetal bovine serum (FBS), and maintained in a CO2 incubator at 37° C.
(§2) Goat anti-rabbit immunoglobulin G (IgG, 7074) and anti-mouse IgG (7076) were purchased from Cell Signaling (Danvers, Mass.). […]
(§3) The LNCaP cells were seeded onto 6-well plates (1×10^6 cells/well) in 2 mL of RPMI medium supplemented with 10% FBS, 100 U/mL penicillin, and […] streptomycin. […] The lysed cells were centrifuged at 13,000 RPM for 20 minutes at 4° C., and the protein concentration was determined using BCA assay. […] The chemiluminescent intensities of protein signals were quantified using ImageJ 1.47 v software, and the results are shown in FIG. 2. The data obtained by SPSS version 11.5 for Windows (SPSS Inc., Chicago, Ill., USA) were expressed as the means±standard errors of the means (SEM). […]
On the technique in general: In western blotting, separated proteins are transferred to a membrane and probed.

Series [2] has as its system androgen receptor (AR). Nature of the series: Western blot of AR expression in DHT-treated LNCaP cells. Type of series: cell-based, human. Particulars: 5 μM, same concentration as tanshinone2a, DHT-induced LNCaP cells. As for the experimental part:
as §1, §2, §3

In series [3] the test system is steroid receptor coactivator-1 (SRC-1). Nature of the series: Western blot of SRC-1 expression in DHT-treated LNCaP cells. Type of series: cell-based, human. The conditions noted are these: 5 μM, DHT-induced LNCaP cells. The method, then: as §1, §2, §3
The subject of series [4] is prostate-specific antigen (PSA). Nature of the series: Western blot of PSA expression in DHT-treated LNCaP cells. Type of series: cell-based, human. The conditions noted are these: 5 μM, same concentration as tanshinone2a, DHT-induced LNCaP cells. As for the experimental part:
as §1, §2, §3

For series [5], the system named is androgen-related proteins. Nature of the series: Overall effect on androgen-related proteins increased by DHT in LNCaP cells. The conditions noted are these: 5 μM, compared among tanshinone1, tanshinone2a, cryptotanshinone, 15,16-dihydrotanshinone. Type of series: cell-based, human. As for the experimental part:
as §1, §2, §3

A short description of series [6]: Body weight in benign prostatic hyperplasia animal models. Type of series: in vivo, Sprague-Dawley rats. The conditions noted are these: BPH rats, oral once/day 14 days; extracts and saw palmetto 10-25 mg/kg, finasteride 10 mg/kg. As for the experimental part: Sprague-Dawley rats aged 9 weeks (body weights of 350 g or less) were acclimated for one week or longer, and then used in tests. In order to induce benign prostatic hyperplasia, testicles were removed and then testosterone (dissolved in corn oil) was subcutaneously injected at a dose of 3 mg/kg once/three days for a total of 10 times. […] For the benign prostatic hyperplasia induction groups, testicles were removed and then […] (dissolved in corn oil) was subcutaneously injected at a dose of 3 mg/kg once/three days for a total of 10 times, by the same method as in Example 4.1. For the normal group, an equivalent amount of corn oil was subcutaneously injected. Salvia miltiorrhiza Bunge extracts T70 to T10 and saw palmetto fruit extract were dissolved in distilled water, and orally administered at a dose of 10-25 mg/kg once/day, for 14 days. For the finasteride administration group (Sigma, dissolved in 0.2% Tween 80), finasteride was orally administered at a dose of 10 mg/kg once/day for 14 days. For the negative control group, only distilled water was orally administered. The body weight was measured upon the end of the test, and on the next day after the ending of the last dosing and treatment, the SD-rats were sacrificed with carbon dioxide gas, and then the prostate tissue was extracted and the weight was measured. […]

The test system of series [7] is cells. Particulars: as reported by SHAN GAO, et al. (2019); cited from earlier work.

`Cc1cccc2c3c(ccc12)C1=C(C(=O)C3=O)[C@@H](C)CO1` [15,16-dihydrotanshinone, (1R)-1,6-dimethyl-1,2-dihydronaphtho[1,2-g][1]benzofuran-10,11-dione]: in series [1], the “inhibition of 5AR2 expression” value is recorded as “more effectively than tanshinone2a”. Moreover, the “inhibition of AR expression relative to tanshinone2a” value in series [2] is given as “at least 5 times”. Moreover, in series [3], the “inhibition of SRC-1 expression” value is given as “more effectively than tanshinone2a”. Further, the “inhibition of PSA expression relative to tanshinone2a” value in series [4] is reported as “at least 5 times”. Also, the “inhibitory effect on androgen-related proteins increased by DHT” value in series [5] is listed as “most inhibitory effect”.
As for `CC(C)(C)NC(=O)[C@H]1CC[C@H]2[C@@H]3CC[C@H]4NC(=O)C=C[C@]4(C)[C@H]3CC[C@]12C` [finasteride], in series [6], the “body weight compared with control group (Con)” value was “no great difference”.
As for `O=C(/C=C/c1ccc(O)c2c1[C@H](C(=O)O[C@H](Cc1ccc(O)c(O)c1)C(=O)O)[C@@H](c1ccc(O)c(O)c1)O2)O[C@H](Cc1ccc(O)c(O)c1)C(=O)O` [salvianolic acid B], the cytotoxicity entry in series [7] is given as “has cytotoxicity at a predetermined concentration”.

Source of the values: patent US20210369803A1, “COMPOSITION CONTAINING SALVIA MILTIORRHIZA BUNGE EXTRACT AS ACTIVE INGREDIENT FOR TREATMENT OR PREVENTION OF BENIGN PROSTATIC HYPERPLASIA OR ALOPECIA” (CUROME BIOSCIENCES CO., LTD., priority 2019, published 2021).
